ChEMBL document CHEMBL3097990, “Probing the Binding Site of Bile Acids in TGR5” (ACS Med Chem Lett, 2013)

Key:
[1] = target: T1, G-protein coupled bile acid receptor 1 (Homo sapiens, UniProt Q8TDU6); experiment: Agonist activity at wild type TGR5 (unknown origin)
T1 sequence (Q8TDU6 whole entry): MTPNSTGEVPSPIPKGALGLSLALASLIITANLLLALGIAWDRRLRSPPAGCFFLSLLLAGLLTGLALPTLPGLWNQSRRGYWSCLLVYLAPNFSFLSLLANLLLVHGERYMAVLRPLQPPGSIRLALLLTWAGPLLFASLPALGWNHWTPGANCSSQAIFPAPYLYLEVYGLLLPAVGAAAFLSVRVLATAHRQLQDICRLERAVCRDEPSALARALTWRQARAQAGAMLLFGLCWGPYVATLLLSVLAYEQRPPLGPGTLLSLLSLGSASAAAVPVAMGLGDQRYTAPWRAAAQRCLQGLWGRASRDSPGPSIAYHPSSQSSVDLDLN

Homo sapiens [2] = organism: Homo sapiens; experiment: Selectivity ratio of EC50 for TGR5 S270A mutant (unknown origin) to EC50 for wild type TGR5 (unknown origin)
Homo sapiens [3] = organism: Homo sapiens; experiment: Selectivity ratio of EC50 for TGR5 N93D mutant (unknown origin) to EC50 for wild type TGR5 (unknown origin)
Homo sapiens [4] = organism: Homo sapiens; experiment: Selectivity ratio of EC50 for TGR5 Y89A mutant (unknown origin) to EC50 for wild type TGR5 (unknown origin)
Homo sapiens [5] = organism: Homo sapiens; experiment: Selectivity ratio of EC50 for TGR5 Y89F mutant (unknown origin) to EC50 for wild type TGR5 (unknown origin)

In the case of `CC[C@H]1[C@@H](O)[C@@H]2[C@H](CC[C@]3(C)[C@@H]([C@H](C)CCN)CC[C@@H]23)[C@@]2(C)CC[C@@H](O)C[C@@H]12`, the EC50 [1] is reported as 1320 nM, the Ratio EC50 (Homo sapiens [2]) is reported as over 1000 and the Ratio EC50 (Homo sapiens [3]) is reported as over 1000. It also gave a Ratio EC50 (Homo sapiens [4]) of over 1000 and a Ratio EC50 (Homo sapiens [5]) of 1.7.
